Results published in EP4227307A1 (Genzyme Corporation, priority 2022, dated 2023).
Where a name gives a salt, the structure may show the parent alone.

target: T1, human recombinant 6His-Nterm SHP2 full-length (Thr2-Arg593) (Homo sapiens, UniProt Q06124); experiment: SHP2 Phosphatase Assay (DiFMUP fluorescence); type: biochemical; settings: SHP2 0.2 nM pre-incubated with 100 nM bi-phosphorylated activating peptide; compound 1000-0.05 nM, 30 min pre-incubation; DiFMUP 20 µM, 45 min, room temperature; 10-concentration dose-response
T1 construct: 6His-Nterm SHP2 full-length (Thr2-Arg593, R&D system); 6His (N); purchased R&D system
T1 sequence (Q06124 2-593): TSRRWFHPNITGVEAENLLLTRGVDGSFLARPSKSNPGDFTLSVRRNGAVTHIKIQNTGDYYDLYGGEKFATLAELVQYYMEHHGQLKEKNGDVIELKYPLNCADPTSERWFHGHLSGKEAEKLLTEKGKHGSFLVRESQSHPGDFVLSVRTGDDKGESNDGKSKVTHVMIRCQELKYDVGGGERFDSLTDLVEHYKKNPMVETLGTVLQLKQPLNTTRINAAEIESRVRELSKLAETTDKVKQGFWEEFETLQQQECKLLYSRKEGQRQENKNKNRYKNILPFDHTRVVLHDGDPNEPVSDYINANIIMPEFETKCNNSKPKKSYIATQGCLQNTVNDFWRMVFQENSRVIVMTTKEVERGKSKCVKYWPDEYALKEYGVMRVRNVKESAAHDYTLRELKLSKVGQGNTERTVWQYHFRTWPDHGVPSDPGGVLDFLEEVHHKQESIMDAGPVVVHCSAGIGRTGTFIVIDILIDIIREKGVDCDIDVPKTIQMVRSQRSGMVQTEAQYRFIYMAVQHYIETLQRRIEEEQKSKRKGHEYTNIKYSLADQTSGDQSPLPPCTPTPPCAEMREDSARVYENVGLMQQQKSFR
In short: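 SHP2 (0.2 nM) preactivated ≥10 min with 100 nM bis-phosphorylated peptide, then 30 min with compound (10 concentrations, 1000–0.05 nM) at room temperature, pH 7.2 HEPES buffer with DTT. DiFMUP (20 µM, added solution) reacted 45 min, pervanadate-stopped; fluorescence 350/450 nm. IC50 by 4-parameter logistic fit.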

Question: Which IC50 does the source give for COc1cccc(-c2c(C)nc(N3CCC4(CC3)Cc3ncccc3[C@H]4N)c3ccnn23)c1 [Compound 32, (5S)-1'-[7-(3-methoxyphenyl)-6-methyl-pyrazolo[1,5-a]pyrazin-4-yl]spiro[5,7-dihydrocyclopenta[b]pyridine-6,4'-piperidine]-5-amine] here?
Answer: The IC50 was 6 nM.

Question: For Cc1ncc(-c2c(C)nc(N3CCC4(CC3)Cc3ncccc3[C@H]4N)c3ccnn23)s1 [Compound 152, (5S)-1'-[6-methyl-7-(2-methylthiazol-5-yl)pyrazolo [1,5-a]pyrazin-4-yl]spiro[5,7-dihydrocyclopenta[b]pyridine-6,4'-piperidine] -5-amine], which IC50 is on record?
Answer: The IC50 was 9 nM.

Question: For COc1ccc2c(c1)[C@@H](N)C1(CCN(c3nc(C)c(-c4ccnc(C)c4Cl)n4nccc34)CC1)C2 [Compound 10, (1S)-1'-[7-(3-chloro-2-methyl-4-pyridyl)-6-methyl-pyrazolo [1,5-a]pyrazin-4-yl]-6-methoxy-spiro[indane-2,4'-piperidine]-1-amine hydrochloride], which IC50 is on record?
Answer: The IC50 was 11 nM.

Question: How did the IC50 turn out when Cc1nc(N2CCC3(CC2)Cc2cc(F)c(F)cc2[C@H]3N)c2ccnn2c1-c1cnn(C)c1C [Compound 80, (1S)-1'-[7-(1,5-dimethylpyrazol-4-yl)-6-methyl-pyrazolo[1,5-a]pyrazin-4-yl]-5,6-difluoro-spiro [indane-2,4'-piperidine]-1-amine hydrochloride] was run?
Answer: The IC50 was 17 nM.

Question: Which IC50 does the source give for Cc1nc(N2CCC3(CC2)Cc2ncsc2[C@H]3N)c2ccnn2c1-c1ccccc1 [Compound 74, (6S)-1'-(6-methyl-7-phenyl-pyrazolo [1,5-a]pyrazin-4-yl)spiro[4,6-dihydrocyclopenta[d]thiazole-5,4'-piperidine] -6-amine hydrochloride] here?
Answer: The IC50 was 5 nM.

Question: For Cc1nc(N2CCC3(CC2)Cc2ncccc2[C@H]3N)c2ccnn2c1-c1ccc2c(c1F)OCCO2 [Compound 34, (5S)-1'-[7-(5-fluoro-2,3-dihydro-1,4-benzodioxin-6-yl)-6-methyl-pyrazolo[1,5-a]pyrazin-4-yl]spiro[5,7-dihydrocyclopenta[b]pyridine-6,4'-piperidine]-5-amine], which IC50 is on record?
Answer: Its IC50 is 3 nM.

Question: For Cc1nccc(-c2c(C)nc(N3CCC4(CC3)Cc3ncccc3[C@H]4N)c3ccnn23)c1Cl [Compound 45, (5S)-1'-[7-(3-cldoro-2-methyl-4-pyridyl)-6-methyl-pyrazolo[1,5-a]pyrazin-4-yl]spiro[5,7-dihydrocyclopenta[b]pyridine-6,4'-piperidine]-5-amine], which IC50 is on record?
Answer: The IC50 was 8 nM.

Question: Cc1cc(-c2c(C)nc(N3CCC4(CC3)Cc3ncccc3[C@H]4N)c3ccnn23)n(C)n1 [Compound 44, (5S)-1'-[7-(2,5-dimethylpyrazol-3-yl)-6-methyl-pyrazolo[1,5-a]pyrazin-4-yl]spiro[5,7-dihydrocyclopenta[b]pyridine-6,4'-piperidine]-5-amine] was tested. Which IC50 did it give?
Answer: The IC50 was 15 nM.

Question: How did the IC50 turn out when Cc1nc(N2CCC3(CC2)Cc2ncccc2[C@H]3N)c2ccnn2c1-c1ccnc(C(F)(F)F)c1F [Compound 41, (5S)-1'-[7-[3-fluoro-2-(trifluoromethyl)-4-pyridyl]-6-methyl-pyrazolo[1,5-a]pyrazin-4-yl]spiro[5,7-dihydrocyclopenta[b]pyridine-6,4'-piperidine]-5-amine] was run?
Answer: Its IC50 is 15 nM.

Question: How did the IC50 turn out when Cc1nc(N2CCC3(CC2)Cc2ncccc2[C@H]3N)c2ccnn2c1-c1ccc(F)c2cc[nH]c12 [Compound 208, (5S)-1'-[7-(4-fluoro-1H-indol-7-yl)-6-methyl-pyrazolo[1,5-a]pyrazin-4-yl]spiro[5,7-dihydrocyclopenta[b]pyridine-6,4'-piperidine]-5-amine] was run?
Answer: The IC50 was 3 nM.

Question: Which IC50 does the source give for Cc1nc(N2CCC3(CC2)Cc2ncccc2[C@H]3N)c2ccnn2c1-c1ccc2scnc2c1 [Compound 170, (5S)-1'-[7-(1,3-benzothiazol-5-yl)-6-methyl-pyrazolo[1,5-a]pyrazin-4-yl]spiro[5,7-dihydrocyclopenta[b]pyridine-6,4'-piperidine]-5-amine] here?
Answer: Its IC50 is 11 nM.
